According to the supplement of paper PMC11061612:

Legend:
Assay in all cases: combination Emax (second highest fraction inhibited in the dose matrix, 72 h); higher = more inhibition; extreme values may be limits of the assay
[1] = tested on: Jurkat (T-Lymphoblastic Leukemia)
Method in brief: (§1)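 Cell lines grown in DMEM/F12 or RPMI with 10% FBS were plated in 1536-well plates and held 24 hours at 37°C, 5% CO2 before 72 hours of exposure to two-drug dose matrices, with DMSO typically at 0.2%. CellTiter-Glo 2.0 luminescence gave viability, which was converted to inhibition. Vehicle wells were set to 0 and blank wells to 1. Combination Emax is the second-highest inhibition in the matrix, and Bliss excess is the observed combination effect minus the expected EA + EB − EA·EB, where EA and EB are the single-agent effects.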

[2] = tested on: EPLC-272H (Other Solid Carcinomas)
Method in brief: as §1

[3] = tested on: SK-HEP-1 (Hepatocellular Carcinoma)
Method in brief: as §1

[4] = tested on: WM1552C (Melanoma)
Method in brief: as §1

[5] = tested on: OACp4C (Esophageal Adenocarcinoma)
Method in brief: as §1

[6] = tested on: PEO1 (Ovarian Carcinoma)
Method in brief: as §1

[7] = tested on: 5637 (Bladder Carcinoma)
Method in brief: as §1

[8] = tested on: LU-165 (Small Cell Lung Carcinoma)
Method in brief: as §1

[9] = tested on: A253 (Head and Neck Carcinoma)
Method in brief: as §1

[10] = tested on: EB2 (Burkitt's Lymphoma)
Method in brief: as §1

[11] = tested on: MHH-ES-1 (Ewing's Sarcoma)
Method in brief: as §1

[12] = tested on: EW-16 (Ewing's Sarcoma)
Method in brief: as §1

[13] = tested on: 769-P (Kidney Carcinoma)
Method in brief: as §1

[14] = tested on: HCC1428 (Breast Carcinoma)
Method in brief: as §1

[15] = tested on: KYSE-140 (Esophageal Squamous Cell Carcinoma)
Method in brief: as §1

[16] = tested on: G-402 (Other Solid Carcinomas)
Method in brief: as §1

[17] = tested on: CAL-27 (Oral Cavity Carcinoma)
Method in brief: as §1

[18] = tested on: RH-41 (Rhabdomyosarcoma)
Method in brief: as §1

[19] = tested on: DU-4475 (Breast Carcinoma)
Method in brief: as §1

[20] = tested on: A2780 (Ovarian Carcinoma)
Method in brief: as §1

Compound: CCN(CCO)CCCOc1ccc2c(Nc3cc(CC(=O)Nc4cccc(F)c4)[nH]n3)ncnc2c1 [AZD2811] + C=CCn1c(=O)c2cnc(Nc3ccc(N4CCN(C)CC4)cc3)nc2n1-c1cccc(C(C)(C)O)n1 [AZD1775] (first compound max 1 µM, partner max 1 µM)
- combination Emax [1]: 0.798
- combination Emax [2]: 0.803
- combination Emax [3]: 0.355
- combination Emax [4]: 0.424
- combination Emax [5]: 0.809
- combination Emax [6]: 0.278
- combination Emax [7]: 0.893
- combination Emax [8]: 0.333
- combination Emax [9]: 0.407
- combination Emax [10]: 0.77
- combination Emax [11]: 0.734
- combination Emax [12]: 0.41
- combination Emax [13]: 0.632
- combination Emax [14]: 0.158
- combination Emax [15]: 0.826
- combination Emax [16]: 0.526
- combination Emax [17]: 0.511
- combination Emax [18]: 0.961
- combination Emax [19]: 0.948
- combination Emax [20]: 0.82

Compound: CC1(C)CCC(CN2CCN(c3ccc(C(=O)NS(=O)(=O)c4ccc(NCC5CCOCC5)c([N+](=O)[O-])c4)c(Oc4cnc5[nH]ccc5c4)c3)CC2)=C(c2ccc(Cl)cc2)C1 [Venetoclax] + Cn1cnc2c(F)c(Nc3ccc(Br)cc3Cl)c(C(=O)NOCCO)cc21 [Selumetinib] (first compound max 1 µM, 7x7, partner max 3 µM)
- combination Emax [1]: 0.277
- combination Emax [2]: 0.506
- combination Emax [3]: 0.234
- combination Emax [4]: 0.488
- combination Emax [5]: 0.488
- combination Emax [6]: 0.19
- combination Emax [7]: 0.264
- combination Emax [8]: 0.142
- combination Emax [9]: 0.185
- combination Emax [10]: 0.755
- combination Emax [11]: 0.0867
- combination Emax [12]: 0.127
- combination Emax [13]: 0.292
- combination Emax [14]: 0.132
- combination Emax [15]: 0.233
- combination Emax [16]: 0.2
- combination Emax [17]: 0.466
- combination Emax [18]: 0.289
- combination Emax [19]: 1
- combination Emax [20]: 0.377
